In ChEMBL document CHEMBL5584255, “Synthesis and antibacterial medicinal evaluation of carbothioamido hydrazonyl thiazolylquinolone with multitargeting antimicrobial potential to combat increasingly global resistance” (Eur J Med Chem, 2024):
≈ marks a conversion by molar mass, not a printed value.

Legend:
Assay type in all cases: functional
Staphylococcus aureus [1] = assay: Antibacterial activity against Staphylococcus aureus ATCC 25923 by microbroth dilution method
Staphylococcus aureus [2] = assay: Antibacterial activity against Staphylococcus aureus ATCC 29213 by microbroth dilution method
Staphylococcus aureus [3] = assay: Antibacterial activity against drug-resistant Staphylococcus aureus by microbroth dilution method
Staphylococcus aureus [4] = assay: Antibacterial activity against methicillin-resistant Staphylococcus aureus N315 by microbroth dilution method
Enterococcus faecalis = assay: Antibacterial activity against drug-resistant Enterococcus faecalis by microbroth dilution method
Candida albicans [5] = assay: Antifungal activity against Candida albicans ATCC 90023
Candida albicans [6] = assay: Antifungal activity against drug-resistant Candida albicans
Candida parapsilosis = assay: Antifungal activity against Candida parapsilosis ATCC 22019; settings: Lodderomyces parapsilosis
Candida tropicalis = assay: Antifungal activity against drug-resistant Candida tropicalis
Aspergillus fumigatus = assay: Antifungal activity against Aspergillus fumigatus
Escherichia coli [7] = assay: Antibacterial activity against Escherichia coli ATCC 25922 by microbroth dilution method
Pseudomonas aeruginosa [8] = assay: Antibacterial activity against Pseudomonas aeruginosa ATCC 27853 by microbroth dilution method
Escherichia coli [9] = assay: Antibacterial activity against drug-resistant Escherichia coli by microbroth dilution method
Pseudomonas aeruginosa [10] = assay: Antibacterial activity against Pseudomonas aeruginosa by microbroth dilution method
Klebsiella pneumoniae = assay: Antibacterial activity against Klebsiella pneumoniae by microbroth dilution method
Acinetobacter baumannii = assay: Antibacterial activity against Acinetobacter baumannii by microbroth dilution method

| SMILES | MIC (Staphylococcus aureus [1]) | MIC (Staphylococcus aureus [2]) | MIC (Staphylococcus aureus [3]) | MIC (Staphylococcus aureus [4]) | MIC (Enterococcus faecalis) | MIC (Candida albicans [5]) | MIC (Candida albicans [6]) | MIC (Candida parapsilosis) | MIC (Candida tropicalis) | MIC (Aspergillus fumigatus) | MIC (Escherichia coli [7]) | MIC (Pseudomonas aeruginosa [8]) | MIC (Escherichia coli [9]) | MIC (Pseudomonas aeruginosa [10]) | MIC (Klebsiella pneumoniae) | MIC (Acinetobacter baumannii) |
| --- | --- | --- | --- | --- | --- | --- | --- | --- | --- | --- | --- | --- | --- | --- | --- | --- |
| CC(=O)Cn1cc(-c2csc(N)n2)c(=O)c2cc(F)cc(F)c21 | 382 µM (≈ 128 µg/mL) | 382 µM (≈ 128 µg/mL) | 764 µM (≈ 256 µg/mL) | 382 µM (≈ 128 µg/mL) | 382 µM (≈ 128 µg/mL) | 382 µM (≈ 128 µg/mL) | 764 µM (≈ 256 µg/mL) | 764 µM (≈ 256 µg/mL) | 382 µM (≈ 128 µg/mL) | 382 µM (≈ 128 µg/mL) | 382 µM (≈ 128 µg/mL) | 191 µM (≈ 64 µg/mL) | 382 µM (≈ 128 µg/mL) | 382 µM (≈ 128 µg/mL) | 764 µM (≈ 256 µg/mL) | 382 µM (≈ 128 µg/mL) |
| Cc1nc(-c2c[nH]c3cc(F)c(F)cc3c2=O)cs1 | 460 µM (≈ 128 µg/mL) | 921 µM (≈ 256 µg/mL) | 1840 µM (≈ 513 µg/mL) | 460 µM (≈ 128 µg/mL) | 460 µM (≈ 128 µg/mL) | 115 µM (≈ 32 µg/mL) | 460 µM (≈ 128 µg/mL) | 1840 µM (≈ 513 µg/mL) | 921 µM (≈ 256 µg/mL) | 921 µM (≈ 256 µg/mL) | 460 µM (≈ 128 µg/mL) | 460 µM (≈ 128 µg/mL) | 1840 µM (≈ 513 µg/mL) | 921 µM (≈ 256 µg/mL) | 1840 µM (≈ 513 µg/mL) | 1840 µM (≈ 513 µg/mL) |
| CC(=O)Cn1cc(-c2csc(N)n2)c(=O)c2cc(F)c(F)cc21 | 382 µM (≈ 128 µg/mL) | 382 µM (≈ 128 µg/mL) | 382 µM (≈ 128 µg/mL) | 382 µM (≈ 128 µg/mL) | 382 µM (≈ 128 µg/mL) | 382 µM (≈ 128 µg/mL) | 764 µM (≈ 256 µg/mL) | 764 µM (≈ 256 µg/mL) | 764 µM (≈ 256 µg/mL) | 382 µM (≈ 128 µg/mL) | 382 µM (≈ 128 µg/mL) | 382 µM (≈ 128 µg/mL) | 764 µM (≈ 256 µg/mL) | 382 µM (≈ 128 µg/mL) | 764 µM (≈ 256 µg/mL) | 382 µM (≈ 128 µg/mL) |
| CC(=O)Cn1cc(-c2csc(C)n2)c(=O)c2cc(F)cc(F)c21 | 1530 µM (≈ 513 µg/mL) | 1530 µM (≈ 513 µg/mL) | 1530 µM (≈ 513 µg/mL) | 1530 µM (≈ 513 µg/mL) | 1530 µM (≈ 513 µg/mL) | 766 µM (≈ 256 µg/mL) | 1530 µM (≈ 513 µg/mL) | 1530 µM (≈ 513 µg/mL) | 1530 µM (≈ 513 µg/mL) | 383 µM (≈ 128 µg/mL) | 1530 µM (≈ 513 µg/mL) | 1530 µM (≈ 513 µg/mL) | 1530 µM (≈ 513 µg/mL) | 1530 µM (≈ 513 µg/mL) | 383 µM (≈ 128 µg/mL) | 766 µM (≈ 256 µg/mL) |
| CC(=O)Cn1cc(-c2csc(N)n2)c(=O)c2cc(F)ccc21 | 202 µM (≈ 64.1 µg/mL) | 404 µM (≈ 128 µg/mL) | 404 µM (≈ 128 µg/mL) | 404 µM (≈ 128 µg/mL) | 807 µM (≈ 256 µg/mL) | 51 µM (≈ 16.2 µg/mL) | 404 µM (≈ 128 µg/mL) | 1620 µM (≈ 513 µg/mL) | 404 µM (≈ 128 µg/mL) | 404 µM (≈ 128 µg/mL) | 404 µM (≈ 128 µg/mL) | 404 µM (≈ 128 µg/mL) | 404 µM (≈ 128 µg/mL) | 404 µM (≈ 128 µg/mL) | 807 µM (≈ 256 µg/mL) | 807 µM (≈ 256 µg/mL) |
| C/C(Cn1cc(-c2csc(N)n2)c(=O)c2cccc(F)c21)=N\NC(N)=S | 41 µM (≈ 16 µg/mL) | 21 µM (≈ 8.2 µg/mL) | 21 µM (≈ 8.2 µg/mL) | 41 µM (≈ 16 µg/mL) | 328 µM (≈ 128 µg/mL) | 328 µM (≈ 128 µg/mL) | 656 µM (≈ 256 µg/mL) | 656 µM (≈ 256 µg/mL) | 656 µM (≈ 256 µg/mL) | 1310 µM (≈ 513 µg/mL) | 328 µM (≈ 128 µg/mL) | 328 µM (≈ 128 µg/mL) | 656 µM (≈ 256 µg/mL) | 656 µM (≈ 256 µg/mL) | 328 µM (≈ 128 µg/mL) | 656 µM (≈ 256 µg/mL) |
| CC(=O)Cn1cc(-c2csc(C)n2)c(=O)c2cc(F)c(Cl)cc21 | 366 µM (≈ 128 µg/mL) | 366 µM (≈ 128 µg/mL) | 366 µM (≈ 128 µg/mL) | 731 µM (≈ 256 µg/mL) | 366 µM (≈ 128 µg/mL) | 91 µM (≈ 31.9 µg/mL) | 366 µM (≈ 128 µg/mL) | 366 µM (≈ 128 µg/mL) | 731 µM (≈ 256 µg/mL) | 731 µM (≈ 256 µg/mL) | 731 µM (≈ 256 µg/mL) | 366 µM (≈ 128 µg/mL) | 731 µM (≈ 256 µg/mL) | 731 µM (≈ 256 µg/mL) | 731 µM (≈ 256 µg/mL) | 731 µM (≈ 256 µg/mL) |
| CC(=O)Cn1cc(-c2csc(N)n2)c(=O)c2cccc(F)c21 | 404 µM (≈ 128 µg/mL) | 807 µM (≈ 256 µg/mL) | 807 µM (≈ 256 µg/mL) | 404 µM (≈ 128 µg/mL) | 404 µM (≈ 128 µg/mL) | 404 µM (≈ 128 µg/mL) | 404 µM (≈ 128 µg/mL) | 404 µM (≈ 128 µg/mL) | 202 µM (≈ 64.1 µg/mL) | 404 µM (≈ 128 µg/mL) | 807 µM (≈ 256 µg/mL) | 404 µM (≈ 128 µg/mL) | 807 µM (≈ 256 µg/mL) | 807 µM (≈ 256 µg/mL) | 404 µM (≈ 128 µg/mL) | 404 µM (≈ 128 µg/mL) |
| Cc1nc(-c2c[nH]c3cc(Cl)c(F)cc3c2=O)cs1 | 435 µM (≈ 128 µg/mL) | 871 µM (≈ 257 µg/mL) | 871 µM (≈ 257 µg/mL) | 435 µM (≈ 128 µg/mL) | 871 µM (≈ 257 µg/mL) | 109 µM (≈ 32.1 µg/mL) | 435 µM (≈ 128 µg/mL) | 218 µM (≈ 64.3 µg/mL) | 871 µM (≈ 257 µg/mL) | 435 µM (≈ 128 µg/mL) | 435 µM (≈ 128 µg/mL) | 435 µM (≈ 128 µg/mL) | 1740 µM (≈ 513 µg/mL) | 871 µM (≈ 257 µg/mL) | 871 µM (≈ 257 µg/mL) | 435 µM (≈ 128 µg/mL) |
| C/C(Cn1cc(-c2csc(N)n2)c(=O)c2cc(F)c(F)cc21)=N\NC(N)=S | 78 µM (≈ 31.9 µg/mL) | 39 µM (≈ 15.9 µg/mL) | 78 µM (≈ 31.9 µg/mL) | 78 µM (≈ 31.9 µg/mL) | 627 µM (≈ 256 µg/mL) | 314 µM (≈ 128 µg/mL) | 1260 µM (≈ 513 µg/mL) | 1260 µM (≈ 513 µg/mL) | 1260 µM (≈ 513 µg/mL) | 314 µM (≈ 128 µg/mL) | 314 µM (≈ 128 µg/mL) | 314 µM (≈ 128 µg/mL) | 627 µM (≈ 256 µg/mL) | 314 µM (≈ 128 µg/mL) | 627 µM (≈ 256 µg/mL) | 314 µM (≈ 128 µg/mL) |
